The values below come from publication PMC6602958, “Pharmacokinetics of anti-infectious reagents in silkworms” (Scientific Reports, 2019).

The subject of data set [1] is cytochrome P450. Kind of data set: Decay of cytochrome P450 substrates in in vitro culture of the silkworm midgut (HPLC). The following applies: for HPLC peak area of substrate, Sample 1 / HPLC peak area of substrate, Sample 2: midgut culture, raw data of Fig. 3; for HPLC peak area of substrate: silkworm (Bombyx mori). As to the method: Silkworm midgut was incubated in medium with cytochrome P450 substrates at 30 °C. The samples were collected, extracted by acetone, and evaporated. The amounts of substrates were determined by HPLC analysis.
Silkworms (5th instar, 5 days) were dissected in a buffer (10 mM HEPES/NaOH, 0.9% NaCl, pH 7.9), and isolated organs were incubated with 3 mL TC-100 medium containing 10% fetal bovine serum, 50 µg/ml gentamicin, and substrates for the metabolic reaction. Whole samples (medium and organ) were homogenized and extracted by equal volumes of acetone followed by evaporation. Extracted samples were dissolved in 50 mM NaOAc buffer and treated with beta-glucosidase to measure the fluorescence of metabolized 7-ethoxycoumarin[6]. […] Samples for HPLC were dissolved in 50% methanol. HPLC analysis was performed using a PEGASIL ODS SP column (φ4.5 mm × 250 mm) with isocratic elution at a flow rate of 1 ml/min.

For data set [2] the following is noted: in vivo, 10 mg/kg; cited from earlier work.
The nature of data set [3]: in vivo. The following applies: for HPLC peak area in hemolymph: silkworm (Bombyx mori). The protocol:
Antibiotics were injected into silkworm hemolymph and hemolymph was collected by cutting the legs at the indicated time.
Antibiotics dissolved in saline were injected into the hemolymph of 5th instar silkworms using a 1-mL syringe attached to a 27 G needle. Hemolymph was harvested from abdominal appendages by cutting them with scissors at the indicated time-points after administration, and mixed with an equal volume of acetone. Samples were centrifuged at 15,000 rpm for 5 min at 4 °C, and the supernatants were evaporated with a centrifuge evaporator[18]. The dried materials were dissolved in 50% methanol and filtrated through a 0.45-µm filter. […] The amount of antibiotics in the sample was quantified from the peak area of the chromatogram.

In data set [4] the test system is Candida albicans. Kind of data set: Antifungal activity (MIC) by micro dilution with or without silkworm hemolymph. The class given is cell-based. As to the method:
Antimicrobial and antifungal activities of each compound were measured by a micro dilution method[19],[20]. To measure protein binding to antifungal activity, silkworm hemolymph was collected by cutting the pseudopodium using scissors, and centrifuged at 3000 rpm for 5 min at 4 °C.

Data set [5] concerns Candida albicans. The data set can be described thus: Silkworm infection model with Candida albicans (ED50). The class given is in vivo, Bombyx mori (silkworm).
Data set [6] in a line: Protein-binding capacity in silkworm hemolymph (filter unit, HPLC). The following applies: silkworm hemolymph.
The conditions of data set [7]: dog, cited from earlier work.

In brackets after ≈: the same amount, converted by molar mass. Read-outs that look alike come from different tables or passages of the source.

With `Cn1c(=O)c2c(ncn2C)n(C)c1=O` [Caffeine], the “HPLC peak area of substrate, Sample 1” value is 236597 in data set [1] (0 h), 225184 in data set [1] (1 h), 220757 in data set [1] (4 h) and 226873 in data set [1] (20 h). In addition, the “HPLC peak area of substrate, Sample 2” value in data set [1] (0 h) is 235789; in data set [1] (1 h), 213119; in data set [1] (4 h), 220302; in data set [1] (20 h), 222211.

Usually half-life stands for how long it takes for the measured level to halve. High values mean slow decline, low ones rapid decline. Take `O=C(N[C@H](CO)[C@H](O)c1ccc([N+](=O)[O-])cc1)C(Cl)Cl` [Chloramphenicol]: the Cltot in data set [2] was 0.24 mL/g/h. Further, the “Cltot (total body clearance)” value in data set [3] (in vivo) is 0.15 mL/g/h. Moreover, the “Time-course of the decrease in concentration in hemolymph (in words)” value in data set [3] (in vivo) was “biphasic”. Also, the half-life in data set [3] (in vivo) was 6 h. Moreover, the “HPLC peak area in hemolymph” value in data set [3] (in vivo, 0.1 min) came to 10505876; in data set [3] (in vivo, 1 min), 8079061; in data set [3] (in vivo, 5 min) it was 4188656; in data set [3] (in vivo, 10 min), 3076056; in data set [3] (in vivo, 20 min), 2727973; in data set [3] (in vivo, 30 min), 1928231. The “HPLC peak area in hemolymph” value in data set [3] (in vivo, 60 min) came out at 2239912; in data set [3] (in vivo, 90 min), 1941121; in data set [3] (in vivo, 120 min), 1803643; in data set [3] (in vivo, 180 min), 1414738; in data set [3] (in vivo, 240 min), 1202608.

Consider `O=C(O)Cc1ccccc1Nc1c(Cl)cccc1Cl` [Diclofenac], for which the “Metabolism in the silkworm midgut (in words)” value in data set [1] is “metabolized in the silkworm midgut”. The “HPLC peak area of substrate” value was 2620000 in data set [1] (0 h), 2450000 in data set [1] (1 h), 2250000 in data set [1] (4 h) and 1370000 in data set [1] (20 h).

A word on the MIC: it is the smallest concentration in the dilution series that meets the test's criterion for growth inhibition. One may read the ED50 as the dose that gives a 50% effect, or the effect in half of the subjects. A low value points to greater potency. In general, fraction unbound refers to the share of the substance not bound to proteins or other matrix. Consider `OC(Cn1cncn1)(Cn1cncn1)c1ccc(F)cc1F` [Fluconazole], for which, in data set [3] (hemolymph), the half-life was 12 h. In data set [3] (in vivo), the “Cltot (total body clearance)” value stood at 0.02 mL/g/h. Besides, in data set [3] (in vivo), the “Time-course of the decrease in concentration in hemolymph (in words)” value is recorded as “biphasic”. Moreover, the “HPLC peak area in hemolymph” value in data set [3] (in vivo, 0.1 min) is 4424583; in data set [3] (in vivo, 1 min) it was 3714240; in data set [3] (in vivo, 5 min) it was 1821531; in data set [3] (in vivo, 10 min), 2367593; in data set [3] (in vivo, 20 min) it was 2257323; in data set [3] (in vivo, 30 min) it was 2040721. Also, the “HPLC peak area in hemolymph” value is recorded as 1663340 in data set [3] (in vivo, 60 min); 1575678 in data set [3] (in vivo, 105 min); 1440231 in data set [3] (in vivo, 120 min); 1474050 in data set [3] (in vivo, 180 min); 1455753 in data set [3] (in vivo, 240 min); 1088734 in data set [3] (in vivo, 360 min). The MIC in data set [4] (read-out: MIC with 10% hemolymph (B), with 10% silkworm hemolymph) was determined as 3.2 µg/mL (≈ 10.4 µM); in data set [4] (without silkworm hemolymph, read-out: MIC without hemolymph (A)), 0.4 µg/mL (≈ 1.31 µM). The “Therapeutic effect in the silkworm infection model (in words)” value in data set [5] (silkworm infection model) is “potent therapeutic effects at a low dose”. Further, in data set [5] (silkworm infection model with Candida albicans), the ED50 amounted to 0.7 mg/kg. Moreover, the fraction unbound at 10 min, 10 µM in data set [6] is 0.35. In data set [7] (dose 10 mg/kg), the Vdss was 0.7 mL/g. For the same compound, the t1/2 in data set [7] (dose 10 mg/kg) was 13.0 h. Besides, in data set [7] (in vivo, 10 mg/kg), the Cltot was 0.04 mL/g/h.
